Measurements published in patent US8663608B2, “Hydroxytyrosol compounds” (University of Cape Town, priority 2009, dated 2014).
Several values for one entry are separate records, joined by “and”; a condition that tells them apart may be missing. Identical values can stand only once.

Tests used:
[1] = DPPH radical scavenging assay; type: biochemical; settings: for Radical Scavenging Activity (%): compared to standard ascorbic acid (100%); for Final time of reaction: time to steady state
Protocol: The DPPH assay is based on the change in absorbance at 515 nm, upon reduction of the DPPH radical, by an antioxidant. The antioxidant activity of a putative antioxidant is measured by monitoring the decrease in absorbance when the colour of the solution fades. In this assay, the reaction between the test antioxidant and DPPH radical is allowed to continue until it reaches a steady state. The amount of the radical quenched when steady state is reached is dependent on the antioxidant capacity and the concentration of the antioxidant. 100 μl (1 mg/3 ml) of the respective sample was added to 3.9 ml DPPH solution (25 mg/L in methanol). The decrease in absorbance at 515 nm was monitored using a Unicam UV-visible spectrophotometer, until the reaction reached steady state.

[2] = tested on: AIF; experiment: Western blot of AIF expression in UVA-irradiated HaCaTs; type: cell-based, human; settings: for % AIF Expression: relative to control (100%)
Text: (§1) Apoptosis can take place through the extrinsic pathway or the intrinsic pathway. The extrinsic pathway involves transmembrane receptor-mediated interactions which involve members of the tumour necrosis factor (TNF). The intrinsic pathway is a mitochondrial-initiated event and thus is of interest for this study. The intrinsic pathway can progress in a caspase-dependent or independent way. The caspase-independent route involves a protein called AIF which when released from the mitochondria, translocates directly to the nucleus and induces apoptosis. The alternative caspase-dependent route involves members of the Bcl-2 family of proteins. This family of proteins is responsible for regulating the permeability of the mitochondrial membrane and can be either pro-apoptotic or anti-apoptotic; Bcl-2 is anti-apoptotic while Bax is pro-apoptotic. The cells' sensitivity to apoptotic stimuli depends on the balance of pro-apoptotic (Bax) and anti-apoptotic (Bcl-2) proteins. […] An excess of Bax results in the cells being more susceptible to apoptosis, and an excess of Bcl-2 renders the cells more resistant to apoptosis. To determine the nature of the anti-apoptotic effect mediated by Polymer Compound 57 and hydroxytyrosol due to UVA irradiation, the Bax/Bcl-2 ratio was studied using Western blot analysis. To evaluate the expression of Bcl-2, Bax and AIF, the cells were cultured and treated with varying concentrations between 200 and 1000 μM of Polymer Compound 57 and hydroxytyrosol for 18 hrs, and then irradiated at 22.3 J/cm^2. Protein extraction was conducted and proteins were quantified using the BCA method. […] The purpose of this control is to ensure that it is only the UVA rays that result in the observed effects, and not the heat in the chamber. Alpha tubilin was used as a loading control in each experiment to ensure that the results were quantified correctly. Since the Western blot results are quantified by band size, it is important to ensure that each sample has the same amount of protein when loaded and the loading control helps to determine this. The band obtained when the proteins are probed with the loading control represent the amount of protein in that loaded sample.

[3] = tested on: Bax; experiment: Western blot of Bax expression in UVA-irradiated HaCaTs; type: cell-based, human; settings: for % Bax Expression: relative to control (100%)
Text: as §1

[4] = tested on: Bcl-2; experiment: Western blot of Bcl-2 expression in UVA-irradiated HaCaTs; type: cell-based, human; settings: for % Bcl-2 Expression: relative to control (100%)
Text: as §1

[5] = tested on: UVA-induced H2O2 production in keratinocytes; experiment: ROS assay (DHR 123, FACS) in UVA-irradiated keratinocytes; type: cell-based, human
Text: UVA irradiation of cultured human skin cells results in over-elevated levels of H2O2 and other ROS (reactive oxygen species), with H2O2 being the predominant species. Dihydrorhodamine (DHR 123) can be used to detect H2O2 produced following irradiating the cells with UVA. […] The mean fluorescence (MF), read on a fluorescent activated cell sorter (FACS) machine thus indicates intracellular H2O2 production. To elucidate the effect that Polymer Compound 57 would have on the over-expression of ROS due to irradiation, H2O2 production in keratinocytes was measured. The cells were first treated with the various concentrations of the Polymer Compound 57, irradiated with UVA and then exposed to the dye DHR 123.

[6] = FRAP assay (iron (III) reduction ability); type: biochemical; settings: 1 ml (1 mg/3 ml) sample
Protocol: The FRAP assay measures the ability of an antioxidant to reduce a ferroin analog, the Fe complex of tripyridyltriazine, Fe (TPTZ)^3+, to the intensely blue coloured Fe^2+ in an acidic medium. Results are obtained as absorbance increases at 593 nm and can be expressed relative to an antioxidant standard, ascorbic acid in this case.
1 ml (1 mg/3 ml) of the respective sample was added to 2.5 ml of potassium phosphate buffer (pH 7, 500 mM) 2.5 ml potassium ferricyanide was added. This was followed by incubation at 50° C. for 20 min. 10% (v/v) trichloracetic acid was added to stop the reaction. 2.5 ml of water was then added to 2.5 ml of the reaction. Iron chloride (0.5 ml) was added. The reaction was allowed to stand for 30 min after which the absorbance was read at 700 nm.

[7] = tested on: low density lipoprotein (LDL); experiment: LDL oxidation assay (conjugated diene formation); type: biochemical; settings: 50 μM test antioxidant; LDL oxidized with 5 μM CuCl2; relative to ascorbic acid
Protocol: Oxidation of low density lipoprotein (LDL) was performed according to the method developed by Nardini et al (1995). LDL was dialyzed in a 200 fold volume of PBS of pH 7 in the dark for 18 hrs. 100 μg/ml LDL, determined with the Bradford method, was oxidized with 5 μM CuCl2 for 4 hrs at 37° C. in the presence and absence of 50 μM test antioxidant. Conjugated diene formation was measured spectroscopically at 234 nm using a Unicam UV-visible spectrophotometer.
The antioxidant ability of Polymer Compound 57 to inhibit LDL oxidation was assessed by adding it to a reaction mixture containing LDL previously treated with copper to initiate the oxidation. The antioxidant ability of the compound was measured based on the increase in absorbance due to diene conjugation at 234 nm.

[8] = tested on: HaCaTs; experiment: XTT cell viability assay in HaCaTs; type: cell-based, human
Protocol: To evaluate the toxicity of Polymer Compound 57 an XTT assay was conducted. The assay is based on the ability of viable cells to reduce yellow XTT tetrazolium salts to an orange formazan which is then measured at an absorbance of 450 nm. The HaCaTs were incubated overnight with increasing concentrations of Polymer Compound 57. Cell viability was then evaluated by adding the XTT solution, incubating for 4 hrs at 37° C., and then reading the absorbance at 450 nm.
To further explore the effect of the antioxidants a dose and time response study was carried out to determine the long term effect of Polymer Compound 57.

Compound: O=C1O[C@H]([C@@H](O)CO)C(O)=C1O [Ascorbic acid, reference compound]
- Radical Scavenging Activity (%) ([1]; 0.002M sample): 100%
- Final time of reaction ([1]; 0.002M sample): 4 min

Compound: OCCc1ccc(O)c(O)c1 [Hydroxytyrosol]
- % AIF Expression ([2]; 200 μM): 91%
- % AIF Expression ([2]; 333 μM): 82%
- reduction of AIF levels relative to the control ([2]; 1000 μM): 15%
- % AIF Expression ([2]; 1000 μM): 42%
- % Bax Expression ([3]; 200 μM): 128%
- % Bax Expression ([3]; 333 μM): 116%
- % Bax Expression ([3]; 1000 μM): 100%
- % Bcl-2 Expression ([4]; 200 μM): 83%
- % Bcl-2 Expression ([4]; 333 μM): 90%
- increase in Bcl-2 levels of expression relative to the control ([4]; 1000 μM): 7%
- % Bcl-2 Expression ([4]; 1000 μM): 110%

Compound: OCCc1cc(O)c(O)c(-c2cc(CCO)cc(O)c2O)c1 [Polymer Compound 57]
- mean fluorescence (ROS level) relative to control of 100% ([5]; 200 μM): 87-100%
- mean fluorescence (ROS level) relative to control of 100% ([5]; 333 μM): 85%
- AIF levels reduced to, relative to the control ([2]; 200 μM): 28%
- % AIF Expression ([2]; 200 μM): 78%
- AIF levels reduced to, relative to the control ([2]; 333 μM): 32%
- % AIF Expression ([2]; 333 μM): 74%
- AIF levels reduced to, relative to the control ([2]; 500 μM): 32%
- % AIF Expression ([2]; 1000 μM): 38%
- antioxidant activity equivalent of ascorbic acid [6]: 363 mg/L
- effect on absorbance at 234 nm due to diene conjugation [7]: absorbance-decreasing effect
- Radical Scavenging Activity (%) ([1]; 0.0004M sample): 86.7%
- Final time of reaction ([1]; 0.0004M sample): 7 min
- reduction of Bax levels relative to the control ([3]; 200 μM): 75% and 70%
- % Bax Expression ([3]; 200 μM): 31%
- reduction of Bax levels relative to the control ([3]; 333 μM): 87.5%
- % Bax Expression ([3]; 333 μM): 17%
- reduction of Bax levels relative to the control ([3]; 500 μM): 87.5%
- % Bax Expression ([3]; 1000 μM): 14%
- decrease of Bax levels relative to the control (100%) ([3]; "lowest concentration" as printed): 85%
- % Bcl-2 Expression ([4]; 200 μM): 50%
- % Bcl-2 Expression ([4]; 333 μM): 84%
- increase in Bcl-2 levels of expression relative to the control ([4]; 500 μM): 16%
- % Bcl-2 Expression ([4]; 1000 μM): 118%
- long term toxicity to HaCaTs ([8]; 3 day period, concentrations non-toxic over 24 hr): non-toxic
- concentrations resulting in marked decreases in cell viability ([8]; HaCaTs, overnight incubation): higher than 500 μM
- concentrations with no negative effect on cell viability ([8]; HaCaTs, overnight incubation): 200 to 500 µM
